# Laboratory results from the supplement of paper PMC11208160.
# Assay: recombinant UMI read abundance after kanamycin selection (control-corrected) (log10(CPM+1)); higher = more efficient recombination; extreme values may be limits of the assay; sequences stand for … in AGTGCAGAGAAAATCGGCCAGTTTTCTCTGCCTGCAGTCCGCATGCCGTGGGACCCCTTGGGTTCTAACCTGTTGCCTAGATTTATGCAGCGGACTGCCTTTCTCCCAAAGTGATAAACCGG…AGGTTGGTTTCACT; site = the 11-nt donor
# Method in brief: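 Sequenced counts of recombinant UMIs were turned into CPM, averaged across replicates and scaled with control-derived factors. The reported figure is log10(CPM+1). Those UMIs, each 12 nt long, tagged donor and donor-binding-loop pairs on a plasmid with a promoterless kanamycin gene, screened as a pool in Escherichia coli with IPTG (0.07 mM) plus kanamycin or without selection.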
# 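Further: IS621 bridge recombinase in Escherichia coli cells against a fixed T5 target plasmid.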
sequence,measurement,value
CGGCTACCATGGACCGGTTTTCCCGGTAATCCGTATTTGCT (site CGGCTACCTAG),recombinant UMI read abundance (log10),0
CGGCTACCATGGACCGGTTTTCCCGGTAATCCGTATTTGCT (site CTGCTACCTAG),recombinant UMI read abundance (log10),0
CGGCTGACATGGACCGGTTTTCCCGGTAATCCGTATTTGCC (site CGGCTGACTGG),recombinant UMI read abundance (log10),1.22
CGGCTGACATGGACCGGTTTTCCCGGTAATCCGTATTTGTT (site CGGCTGACTAA),recombinant UMI read abundance (log10),0.0767
CGGGAACCATGGACCGGTTTTCCCGGTAATCCGTATTTGAG (site CGGGAACCTAT),recombinant UMI read abundance (log10),0
CGGGAACCATGGACCGGTTTTCCCGGTAATCCGTATTTGAG (site CGGGAACCTCT),recombinant UMI read abundance (log10),0.013
CGGGAACCATGGACCGGTTTTCCCGGTAATCCGTATTTGAG (site CGGGAACCTGT),recombinant UMI read abundance (log10),0
CGGGAACCATGGACCGGTTTTCCCGGTAATCCGTATTTGAG (site CGGGAACCTTT),recombinant UMI read abundance (log10),0
CGGGAACCATGGACCGGTTTTCCCGGTAATCCGTATTTGCG (site CGGGAACCTCG),recombinant UMI read abundance (log10),0
CGGGAACCATGGACCGGTTTTCCCGGTAATCCGTATTTGTT (site CGGAATCCTAA),recombinant UMI read abundance (log10),0
CGGGAACCATGGACCGGTTTTCCCGGTAATCCGTATTTGTT (site CGGGAACCTAA),recombinant UMI read abundance (log10),0.47
CGGGAACCATGGACCGGTTTTCCCGGTAATCCGTATTTGTT (site CGGGAACCTAC),recombinant UMI read abundance (log10),0
CGGGAACCATGGACCGGTTTTCCCGGTAATCCGTATTTGTT (site CGGGAACCTAG),recombinant UMI read abundance (log10),0
CGGGAACCATGGACCGGTTTTCCCGGTAATCCGTATTTGTT (site CGGGAACCTAT),recombinant UMI read abundance (log10),0.0108
CGGGAGACATGGACCGGTTTTCCCGGTAATCCGTATTTGCC (site CGGGAGACTGG),recombinant UMI read abundance (log10),1.58
CGGGAGACATGGACCGGTTTTCCCGGTAATCCGTATTTGCC (site CGGGAGCCTGG),recombinant UMI read abundance (log10),0
CGGGAGACATGGACCGGTTTTCCCGGTAATCCGTATTTGCC (site CGGGAGGCTGG),recombinant UMI read abundance (log10),1.69
CGGGAGACATGGACCGGTTTTCCCGGTAATCCGTATTTGCC (site CGGGAGTCTGG),recombinant UMI read abundance (log10),0.663
CGGGAGTCATGGACCGGTTTTCCCGGTAATCCGTATTTGCG (site CGGGAGTCTAG),recombinant UMI read abundance (log10),1.03
CGGGAGTCATGGACCGGTTTTCCCGGTAATCCGTATTTGCG (site CGGGAGTCTCG),recombinant UMI read abundance (log10),2.8
CGGGAGTCATGGACCGGTTTTCCCGGTAATCCGTATTTGCG (site CGGGAGTCTGG),recombinant UMI read abundance (log10),0
CGGGAGTCATGGACCGGTTTTCCCGGTAATCCGTATTTGCG (site CGGGAGTCTTG),recombinant UMI read abundance (log10),0.888
CGGGAGTCATGGACCGGTTTTCCCGGTAATCCGTATTTGGC (site CGGGAGTCTGA),recombinant UMI read abundance (log10),1.59
CGGGAGTCATGGACCGGTTTTCCCGGTAATCCGTATTTGGC (site CGGGAGTCTGC),recombinant UMI read abundance (log10),2.76
CGGGAGTCATGGACCGGTTTTCCCGGTAATCCGTATTTGGC (site CGGGAGTCTGG),recombinant UMI read abundance (log10),0.911
CGGGAGTCATGGACCGGTTTTCCCGGTAATCCGTATTTGGC (site CGGGAGTCTGT),recombinant UMI read abundance (log10),1.96
CGGGATCCATGGACCGGTTTTCCCGGTAATCCGTATTTGCT (site CGGAATCCTAA),recombinant UMI read abundance (log10),0.0224
CGGGATCCATGGACCGGTTTTCCCGGTAATCCGTATTTGCT (site CGGGATCCTAG),recombinant UMI read abundance (log10),0
CGGGCACCATGGACCGGTTTTCCCGGTAATCCGTATTTGCA (site AGGGCACCTTG),recombinant UMI read abundance (log10),0.0117
CGGGCACCATGGACCGGTTTTCCCGGTAATCCGTATTTGCA (site CGGGCACCTTG),recombinant UMI read abundance (log10),0
CGGGCACCATGGACCGGTTTTCCCGGTAATCCGTATTTGCA (site GGGGCACCTTG),recombinant UMI read abundance (log10),0.00963
CGGGCACCATGGACCGGTTTTCCCGGTAATCCGTATTTGCA (site TGGGCACCTTG),recombinant UMI read abundance (log10),0
CGGGGACCATGGACCGGTTTTCCCGGTAATCCGTATTTGAT (site CGGGAACCTAT),recombinant UMI read abundance (log10),0
CGGGGACCATGGACCGGTTTTCCCGGTAATCCGTATTTGAT (site CGGGCACCTAT),recombinant UMI read abundance (log10),0.00825
CGGGGACCATGGACCGGTTTTCCCGGTAATCCGTATTTGAT (site CGGGGACCTAT),recombinant UMI read abundance (log10),0
CGGGGACCATGGACCGGTTTTCCCGGTAATCCGTATTTGAT (site CGGGTACCTAT),recombinant UMI read abundance (log10),0
CGGGGACCATGGACCGGTTTTCCCGGTAATCCGTATTTGGG (site CGAGGACCTCC),recombinant UMI read abundance (log10),0.0137
CGGGGACCATGGACCGGTTTTCCCGGTAATCCGTATTTGGG (site CGCGGACCTCC),recombinant UMI read abundance (log10),0.0363
CGGGGACCATGGACCGGTTTTCCCGGTAATCCGTATTTGGG (site CGGGGACCTCC),recombinant UMI read abundance (log10),0.0134
CGGGGACCATGGACCGGTTTTCCCGGTAATCCGTATTTGGG (site CGTGGACCTCC),recombinant UMI read abundance (log10),0.00366
CGGGGCGCATGGACCGGTTTTCCCGGTAATCCGTATTTGAA (site CGGGGCGCTTT),recombinant UMI read abundance (log10),1.26
CGGGGCGCATGGACCGGTTTTCCCGGTAATCCGTATTTGGC (site CGGGGCGCTGC),recombinant UMI read abundance (log10),3.06
CGGGGCTCATGGACCGGTTTTCCCGGTAATCCGTATTTGCA (site CGGGGCTCTTG),recombinant UMI read abundance (log10),2.79
CGGGGTCCATGGACCGGTTTTCCCGGTAATCCGTATTTGAT (site CGGGGTCCTAT),recombinant UMI read abundance (log10),0
CGGGTTGCATGGACCGGTTTTCCCGGTAATCCGTATTTGGT (site CGGGTTGCTAC),recombinant UMI read abundance (log10),1.77
CGGTACCCATGGACCGGTTTTCCCGGTAATCCGTATTTGAG (site CGGTACCCTCT),recombinant UMI read abundance (log10),0.188
CGGTCACCATGGACCGGTTTTCCCGGTAATCCGTATTTGTA (site CGGTCACCTTA),recombinant UMI read abundance (log10),0
CGGTCATCATGGACCGGTTTTCCCGGTAATCCGTATTTGCA (site CGATCATCTAG),recombinant UMI read abundance (log10),0.01
CGGTCATCATGGACCGGTTTTCCCGGTAATCCGTATTTGCA (site CGGTCATCTTG),recombinant UMI read abundance (log10),0.39
CGGTCCTCATGGACCGGTTTTCCCGGTAATCCGTATTTGCA (site CGGTCCTCTTG),recombinant UMI read abundance (log10),0
CGGTCTGCATGGACCGGTTTTCCCGGTAATCCGTATTTGAG (site CGGTCTGCTCT),recombinant UMI read abundance (log10),0.251
CGGTTGCCATGGACCGGTTTTCCCGGTAATCCGTATTTGGC (site CGGTTGCCTGC),recombinant UMI read abundance (log10),0
CGTAATCCATGGACCGGTTTTCCCGGTAATCCGTATTTGAT (site CGGAATCCTAA),recombinant UMI read abundance (log10),0
CGTAATCCATGGACCGGTTTTCCCGGTAATCCGTATTTGAT (site CGTAATCCTAT),recombinant UMI read abundance (log10),0.697
CGTAATCCATGGACCGGTTTTCCCGGTAATCCGTATTTGTC (site CGGAATCCTAA),recombinant UMI read abundance (log10),0
CGTAATCCATGGACCGGTTTTCCCGGTAATCCGTATTTGTC (site CGTAATCCTGA),recombinant UMI read abundance (log10),1.47
CGTACACCATGGACCGGTTTTCCCGGTAATCCGTATTTGAC (site AGTACACCTGT),recombinant UMI read abundance (log10),0
CGTACACCATGGACCGGTTTTCCCGGTAATCCGTATTTGAC (site CGTACACCTGT),recombinant UMI read abundance (log10),0
CGTACACCATGGACCGGTTTTCCCGGTAATCCGTATTTGAC (site GGTACACCTGT),recombinant UMI read abundance (log10),0
CGTACACCATGGACCGGTTTTCCCGGTAATCCGTATTTGAC (site TGTACACCTGT),recombinant UMI read abundance (log10),0
CGTACCGCATGGACCGGTTTTCCCGGTAATCCGTATTTGTC (site CGTACCGCTGA),recombinant UMI read abundance (log10),2.78
CGTAGATCATGGACCGGTTTTCCCGGTAATCCGTATTTGCA (site CGTAGATCTTG),recombinant UMI read abundance (log10),2.44
CGTAGTCCATGGACCGGTTTTCCCGGTAATCCGTATTTGTT (site CGGAATCCTAA),recombinant UMI read abundance (log10),0
CGTAGTCCATGGACCGGTTTTCCCGGTAATCCGTATTTGTT (site CGTAGTCCTAA),recombinant UMI read abundance (log10),0.247
CGTATACCATGGACCGGTTTTCCCGGTAATCCGTATTTGAA (site CGTATACCTTT),recombinant UMI read abundance (log10),0.0161
CGTATGGCATGGACCGGTTTTCCCGGTAATCCGTATTTGTG (site CGTATGGCTCA),recombinant UMI read abundance (log10),1.33
CGTATGTCATGGACCGGTTTTCCCGGTAATCCGTATTTGGT (site CGTATGTCTAC),recombinant UMI read abundance (log10),1.59
CGTATTCCATGGACCGGTTTTCCCGGTAATCCGTATTTGTG (site CGTATTCCTCA),recombinant UMI read abundance (log10),0.0112
CGTCACTCATGGACCGGTTTTCCCGGTAATCCGTATTTGGC (site CGTCACTCTGC),recombinant UMI read abundance (log10),2.8
CGTCCAACATGGACCGGTTTTCCCGGTAATCCGTATTTGTA (site AGTCCAACTTA),recombinant UMI read abundance (log10),0.00336
CGTCCAACATGGACCGGTTTTCCCGGTAATCCGTATTTGTA (site CGTCCAACTTA),recombinant UMI read abundance (log10),1.61
CGTCCAACATGGACCGGTTTTCCCGGTAATCCGTATTTGTA (site GGTCCAACTTA),recombinant UMI read abundance (log10),0.0127
CGTCCAACATGGACCGGTTTTCCCGGTAATCCGTATTTGTA (site TGTCCAACTTA),recombinant UMI read abundance (log10),0.0409
CGTCTAGCATGGACCGGTTTTCCCGGTAATCCGTATTTGGC (site CGTCTAGCTGC),recombinant UMI read abundance (log10),2.07
CGTCTCACATGGACCGGTTTTCCCGGTAATCCGTATTTGGT (site CGTCTCACTAC),recombinant UMI read abundance (log10),1.62
